Measurements from patent US11420969B2 (Exonate Limited, priority 2017, dated 2022).

Legend:
CYP1A2 = biological target: T1, CYP1A2 (Homo sapiens, UniProt P05177); test: CYP inhibition assay, human liver microsomes, substrate tacrine; format: in vitro ADME; settings: human liver microsomes, 10 min incubation, LC-MS/MS; read-out: CYP Inhibition Activity (IC50/nM) CYP1A2
T1 construct: from tissue; host or cells: human liver microsomes
T1 sequence (P05177 1-516): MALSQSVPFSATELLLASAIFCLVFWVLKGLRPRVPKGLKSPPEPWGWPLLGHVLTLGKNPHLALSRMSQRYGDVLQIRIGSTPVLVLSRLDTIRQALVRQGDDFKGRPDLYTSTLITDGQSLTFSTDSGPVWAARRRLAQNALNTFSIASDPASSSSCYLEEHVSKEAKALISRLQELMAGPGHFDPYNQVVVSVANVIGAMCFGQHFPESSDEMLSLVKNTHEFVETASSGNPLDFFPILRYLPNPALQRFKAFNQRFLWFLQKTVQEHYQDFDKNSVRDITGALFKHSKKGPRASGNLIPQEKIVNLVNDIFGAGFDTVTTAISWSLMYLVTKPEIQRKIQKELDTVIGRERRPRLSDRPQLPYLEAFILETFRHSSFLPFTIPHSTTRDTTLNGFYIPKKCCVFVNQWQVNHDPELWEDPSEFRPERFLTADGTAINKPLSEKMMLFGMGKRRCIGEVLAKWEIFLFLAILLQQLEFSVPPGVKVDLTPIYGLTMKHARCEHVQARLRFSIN
In short: (§1)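 Human liver microsomes with pooled substrates, test compound or positive inhibitor pre-incubated 20 min at 37° C, then NADPH-started reaction for 10 min at 37° C. Stopped with cold acetonitrile; metabolites quantified by LC-MS/MS, giving % inhibition and IC50.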

CYP2C19 = biological target: T2, CYP2C19 (Homo sapiens, UniProt P33261); test: CYP inhibition assay, human liver microsomes, substrate S-mephenytoin; format: in vitro ADME; settings: human liver microsomes, 10 min incubation, LC-MS/MS; read-out: CYP Inhibition Activity (IC50/nM) CYP2C19
T2 construct: from tissue; host or cells: human liver microsomes
T2 sequence (P33261 whole entry): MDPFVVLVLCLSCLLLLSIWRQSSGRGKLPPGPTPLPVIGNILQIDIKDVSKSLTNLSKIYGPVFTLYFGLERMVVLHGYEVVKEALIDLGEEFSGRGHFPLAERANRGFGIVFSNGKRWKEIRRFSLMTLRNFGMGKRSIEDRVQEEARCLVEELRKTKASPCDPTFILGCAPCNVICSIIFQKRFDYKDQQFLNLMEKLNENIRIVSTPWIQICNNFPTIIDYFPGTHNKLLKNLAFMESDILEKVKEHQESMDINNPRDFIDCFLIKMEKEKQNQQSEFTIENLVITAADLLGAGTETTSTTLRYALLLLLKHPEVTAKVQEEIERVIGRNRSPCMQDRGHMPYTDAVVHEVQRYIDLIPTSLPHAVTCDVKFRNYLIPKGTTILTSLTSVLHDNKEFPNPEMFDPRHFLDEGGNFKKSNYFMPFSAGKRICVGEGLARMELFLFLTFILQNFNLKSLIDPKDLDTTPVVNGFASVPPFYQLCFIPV
In short: as §1

CYP2C9 = biological target: T3, CYP2C9 (Homo sapiens, UniProt P11712); test: CYP inhibition assay, human liver microsomes, substrate diclofenac; format: in vitro ADME; settings: human liver microsomes, 10 min incubation, LC-MS/MS; read-out: CYP Inhibition Activity (IC50/nM) CYP2C9
T3 construct: from tissue; host or cells: human liver microsomes
T3 sequence (P11712 whole entry): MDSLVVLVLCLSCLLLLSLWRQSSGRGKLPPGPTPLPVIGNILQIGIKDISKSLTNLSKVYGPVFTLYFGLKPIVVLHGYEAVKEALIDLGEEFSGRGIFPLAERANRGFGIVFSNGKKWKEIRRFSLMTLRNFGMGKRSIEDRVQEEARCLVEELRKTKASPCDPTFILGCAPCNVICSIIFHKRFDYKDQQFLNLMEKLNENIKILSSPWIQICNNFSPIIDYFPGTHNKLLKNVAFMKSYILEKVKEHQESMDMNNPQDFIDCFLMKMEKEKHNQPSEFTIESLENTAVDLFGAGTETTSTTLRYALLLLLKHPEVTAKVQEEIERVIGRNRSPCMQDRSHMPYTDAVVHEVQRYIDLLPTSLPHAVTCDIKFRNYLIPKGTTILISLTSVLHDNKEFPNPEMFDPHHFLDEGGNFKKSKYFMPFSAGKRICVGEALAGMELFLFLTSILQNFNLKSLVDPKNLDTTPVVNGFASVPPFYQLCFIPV
In short: as §1

CYP3A4 = biological target: T4, CYP3A4 (Homo sapiens, UniProt P08684); test: CYP inhibition assay, human liver microsomes, substrate midazolam; format: in vitro ADME; settings: human liver microsomes, 10 min incubation, LC-MS/MS; read-out: CYP Inhibition Activity (IC50/nM) CYP3A4
T4 construct: from tissue; host or cells: human liver microsomes
T4 sequence (P08684 whole entry): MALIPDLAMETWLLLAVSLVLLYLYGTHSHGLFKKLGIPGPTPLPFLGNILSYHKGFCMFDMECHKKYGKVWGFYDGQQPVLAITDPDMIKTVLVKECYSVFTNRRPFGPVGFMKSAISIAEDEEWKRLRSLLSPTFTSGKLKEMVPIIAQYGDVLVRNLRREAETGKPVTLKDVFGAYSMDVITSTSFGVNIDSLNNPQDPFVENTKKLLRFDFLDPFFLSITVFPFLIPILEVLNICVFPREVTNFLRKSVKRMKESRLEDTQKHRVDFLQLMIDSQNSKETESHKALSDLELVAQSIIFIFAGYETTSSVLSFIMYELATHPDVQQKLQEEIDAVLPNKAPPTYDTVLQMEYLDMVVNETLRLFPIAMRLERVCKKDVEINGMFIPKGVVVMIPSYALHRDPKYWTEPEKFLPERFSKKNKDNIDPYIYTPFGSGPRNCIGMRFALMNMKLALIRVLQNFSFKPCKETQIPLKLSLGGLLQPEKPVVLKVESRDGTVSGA
In short: as §1

CYP2D6 = biological target: T5, CYP2D6 (Homo sapiens, UniProt P10635); test: biochemical; format: in vitro ADME
T5 construct: from tissue; host or cells: human liver microsomes
T5 sequence (P10635 whole entry): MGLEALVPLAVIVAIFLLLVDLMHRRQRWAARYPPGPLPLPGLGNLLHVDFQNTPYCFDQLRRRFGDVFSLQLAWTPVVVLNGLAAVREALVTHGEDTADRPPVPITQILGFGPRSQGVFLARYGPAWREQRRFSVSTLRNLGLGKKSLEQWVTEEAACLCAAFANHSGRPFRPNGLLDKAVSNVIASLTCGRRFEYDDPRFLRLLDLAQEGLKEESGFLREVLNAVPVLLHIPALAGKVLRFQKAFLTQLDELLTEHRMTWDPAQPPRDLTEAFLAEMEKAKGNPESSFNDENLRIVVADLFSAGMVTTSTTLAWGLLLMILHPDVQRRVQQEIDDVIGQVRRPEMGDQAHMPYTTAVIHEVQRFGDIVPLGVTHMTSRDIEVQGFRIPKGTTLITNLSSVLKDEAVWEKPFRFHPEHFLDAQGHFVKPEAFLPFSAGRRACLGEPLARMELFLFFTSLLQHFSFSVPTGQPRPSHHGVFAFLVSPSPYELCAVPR
In short: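 Human liver microsomes (0.253 mg/mL working stock) pre-incubated with compound and substrate pool at 37° C for 20 min. Reaction started with NADPH and run 10 min at 37° C, stopped with cold ACN. Metabolite analysed by LC-MS/MS; % inhibition and IC50 calculated versus inhibitor-free control.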

SRPK1 = SRPK1 (Homo sapiens, UniProt Q96SB4); test: In vitro SRPK1 assay (Kinase-Glo); format: biochemical
Sequence of SRPK1 (Q96SB4 whole entry, species assumed): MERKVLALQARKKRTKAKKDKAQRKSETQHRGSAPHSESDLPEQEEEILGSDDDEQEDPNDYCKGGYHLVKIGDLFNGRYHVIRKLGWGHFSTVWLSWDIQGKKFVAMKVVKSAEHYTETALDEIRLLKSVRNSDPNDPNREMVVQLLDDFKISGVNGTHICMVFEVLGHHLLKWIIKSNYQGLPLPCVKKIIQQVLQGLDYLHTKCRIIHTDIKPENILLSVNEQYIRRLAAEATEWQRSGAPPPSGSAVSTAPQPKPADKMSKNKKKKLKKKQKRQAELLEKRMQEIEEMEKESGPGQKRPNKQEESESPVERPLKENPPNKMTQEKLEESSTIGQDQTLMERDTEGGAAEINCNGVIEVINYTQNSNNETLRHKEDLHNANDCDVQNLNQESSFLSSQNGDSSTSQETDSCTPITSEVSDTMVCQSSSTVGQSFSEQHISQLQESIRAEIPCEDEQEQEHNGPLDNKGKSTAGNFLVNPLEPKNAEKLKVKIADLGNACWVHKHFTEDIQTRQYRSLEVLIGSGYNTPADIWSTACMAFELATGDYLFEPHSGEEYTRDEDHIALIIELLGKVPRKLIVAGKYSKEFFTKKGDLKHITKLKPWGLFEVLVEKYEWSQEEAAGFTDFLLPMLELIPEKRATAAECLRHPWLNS

Row | SMILES | IC50 (CYP1A2) [nM] | IC50 (CYP2C19) [nM] | IC50 (CYP2C9) [nM] | IC50 (CYP3A4) [nM] | IC50 (CYP2D6) [µM] | IC50 (SRPK1) [nM]
1 | CN(C)CC1(C)CCN(c2ccc(C(F)(F)F)cc2NC(=O)c2ccc(-c3ccncc3)o2)CC1 [Example 80, N-(2-(4-((dimethylamino)methyl)-4-methyl-piperidin-1-yl)-5-(trifluoromethyl)phenyl)-5-(pyridin-4-yl)furan-2-carboxamide] | > 30000 | 7340 | 7640 | 3540 | 1.04 | 42
2 | CC1(O)CCN(c2ccc(C3CC3)cc2NC(=O)c2ccc(C3CCOCC3)o2)C1 (racemic) [Example 59, N-(5-cyclopropyl-2-(3-hydroxy-3-methyl-pyrrolidin-1-yl)phenyl)-5-(tetrahydro-2H-pyran-4-yl)furan-2-carboxamide] | 10500 | 10500 | 15000 | > 30000 | 23.9 | 54
3 | CN(C)C(=O)C1(C)CCN(c2ccc(C(F)(F)F)cc2NC(=O)c2ccc(C3CCOCC3)o2)CC1 [Example 77, N,N,4-trimethyl-1-(2-(5-(tetrahydro-2H-pyran-4-yl)furan-2-carboxamido)-4-(trifluoromethyl)-phenyl)piperidine-4-carboxamide] | > 30000 | 4780 | 1440 | 970 | 9.54 | 1.6
4 | COc1ccc(N2CCC(C)(O)CC2)c(NC(=O)c2ccc(-c3ccncc3)o2)c1 [Example 9, N-(2-(4-hydroxy-4-methylpiperidin-1-yl)-5-methoxyphenyl)-5-(pyridin-4-yl)furan-2-carboxamide] | 4990 | 890 | 350 | 360 | 5.1 | 4.4
5 | Cc1ccc(N2CCC(C)(O)C2)c(NC(=O)c2ccc(C3CCOCC3)o2)c1 (racemic) [Example 58, N-(2-(3-hydroxy-3-methylpyrrolidin-1-yl)-5-methylphenyl)-5-(tetrahydro-2H-pyran-4-yl)-furan-2-carboxamide] | > 30000 | > 30000 | > 30000 | 23200 | > 30 | 204
6 | COC1(C)CCN(c2ccc(C(F)(F)F)cc2NC(=O)c2ccc(C3CCOCC3)o2)CC1 [Example 18, N-(2-(4-methoxy-4-methylpiperidin-1-yl)-5-(trifluoromethyl)-phenyl)-5-(tetrahydro-2H-pyran-4-yl)furan-2-carboxamide] | > 30000 | 4910 | 5160 | 9800 | 15.8 | 54
7 | CC1(O)CCN(c2ccc(OC(F)(F)F)cc2NC(=O)c2ccc(-c3ccncc3)o2)CC1 [Example 10, N-(2-(4-hydroxy-4-methylpiperidin-1-yl)-5-(trifluoromethoxy)phenyl)-5-(pyridin-4-yl)furan-2-carboxamide] | 14400 | 2670 | 1770 | 3780 | 5.42 | 6
8 | CC1(O)CCN(c2ccc(C3CC3)cc2NC(=O)c2ccc(-c3ccncc3)o2)CC1 [Example 6, N-(5-cyclopropyl-2-(4-hydroxy-4-methylpiperidin-1-yl)phenyl)-5-(pyridin-4-yl)furan-2-carboxamide] | 11700 | 1010 | 790 | 1050 | 4.83 | 1.7
9 | CC1(O)CCCN(c2ccc(C3CC3)cc2NC(=O)c2ccc(C3CCOCC3)o2)CC1 (racemic) [Example 42, N-(5-cyclopropyl-2-(4-hydroxy-4-methylazepan-1-yl)phenyl)-5-(tetrahydro-2H-pyran-4-yl)furan-2-carboxamide] | > 30000 | 530 | 610 | 10300 | 16.6 | 13
10 | CCC1(O)CCN(c2ccc(C(F)(F)F)cc2NC(=O)c2ccc(C3CCOCC3)o2)CC1 [Example 20, N-(2-(4-ethyl-4-hydroxypiperidin-1-yl)-5-(trifluoromethyl)phenyl)-5-(tetrahydro-2H-pyran-4-yl)furan-2-carboxamide] | > 30000 | > 30000 | > 30000 | > 30000 | > 30 | 6
11 | O=C(Nc1cc(C2CC2)ccc1N1CCC(O)CC1)c1ccc(C2CCOCC2)o1 [Example 61, N-(5-cyclopropyl-2-(4-hydroxypiperidin-1-yl)phenyl)-5-(tetrahydro-2H-pyran-4-yl)furan-2-carboxamide] | > 30000 | 10600 | 7600 | > 30000 | > 30 | 1.2
12 | CC1(O)CCN(c2ccc(C(F)(F)F)cc2NC(=O)c2ccc(C3CCOCC3)o2)C1 (racemic) [Example 54, N-(2-(3-hydroxy-3-methylpyrrolidin-1-yl)-5-(trifluoromethyl)-phenyl)-5-(tetrahydro-2H-pyran-4-yl)furan-2-carboxamide] | > 30000 | 6140 | 6350 | 20900 | 7.14 | 35
13 | O=C(Nc1cc(C(F)(F)F)ccc1N1CCCC(O)CC1)c1ccc(C2CCOCC2)o1 (racemic) [Example 47, N-(2-(4-hydroxyazepan-1-yl)-5-(trifluoromethyl)-phenyl)-5-(tetrahydro-2H-pyran-4-yl)furan-2-carboxamide] | > 30000 | > 30000 | > 30000 | > 30000 | > 30 | 10.4
14 | CC1CCN(c2ccc(C(F)(F)F)cc2NC(=O)c2ccc(-c3ccncc3)o2)CC1 [Example 34, N-(2-(4-methylpiperidin-1-yl)-5-(trifluoromethyl)-phenyl)-5-(pyridin-4-yl)furan-2-carboxamide] | 4000 | 4000 | 5600 | 7300 | 5.5 | 422
15 | Cc1ccc(N2CCC(C)(CN(C)C)CC2)c(NC(=O)c2ccc(C3CCOCC3)o2)c1 [Example 94, N-(2-(4-((dimethylamino)methyl)-4-methyl-piperidin-1-yl)-5-methylphenyl)-5-(tetrahydro-2H-pyran-4-yl)furan-2-carboxamide] | > 30000 | 25100 | 17200 | 23100 | 0.3 | 167
16 | CC1(CO)CCN(c2ccc(C(F)(F)F)cc2NC(=O)c2ccc(C3CCOCC3)o2)CC1 [Example 25, N-(2-(4-(hydroxymethyl)-4-methylpiperidin-1-yl)-5-(trifluoromethyl)phenyl)-5-(tetrahydro-2H-pyran-4-yl)furan-2-carboxamide] | > 30000 | 15800 | 4960 | > 30000 | > 30 | 2
17 | O=C(Nc1cc(C(F)(F)F)ccc1N1CCC(O)C1)c1ccc(-c2ccncc2)o1 (racemic) [Example 56, N-(2-(3-hydroxypyrrolidin-1-yl)-5-(trifluoromethyl)-phenyl)-5-(pyridin-4-yl)furan-2-carboxamide] | 960 | 130 | 140 | 2420 | 0.04 | 101
